According to article PMC5572722, “Dimerization in tailoring uptake efficacy of the HSV-1 derived membranotropic peptide gH625” (Scientific Reports, 2017):
Positions of bridges follow the written chain, without caps; N, C: chain ends. Residues, ends and D or L forms follow the SMILES beside them. Chains are numbered I, II in the order given. No end group written: not given here.

Legend:
[1] = Surface plasmon resonance binding to lipid bilayer, L1 chip, two-state model; details: affinity constant of second step, K2 = ka2/kd2
Excerpt: To investigate the mode of action of gH625-H7 and gH625-G7 and for comparisons with gH625[6], we used SPR. In a previous paper[7] we also reported the data for two control peptides: the melittin and the HIV fusion peptide (gp41-FP). Figure 6 reports the obtained sensorgrams of the binding and an increase of the RU signal intensity as a function of the peptide concentration can be observed. […] In particular, all the sensorgrams obtained for gH625[7] and gH625-G7 indicate the binding to the lipid surfaces is characterized by an initial fast association process which then slows down considerably towards the end of the peptide injection. The dissociation follows a similar trend, characterized by the signal falling rapidly at the end of injection when the peptide is no longer present and the buffer flow removes free or weekly bound peptide.
The average values for the rate constants obtained with the two-state model analysis are reported in Table 4 along with the affinity constant values (K A). The data clearly indicate the main influence on the overall binding constant of the fast association rate and slow dissociation rate of the first step.
We used a BIAcore 3000 analytical system (Biacore, Uppsala, Sweden) equipped with a L1 sensor chip which contains hydrophobic alkanethiol chains, with exposed polar head groups; a lipid bilayer was created by introducing liposomes to the chip. SUVs composed by DOPG/Chol (60/40) (80 μL, 0.5 mM) were applied to the chip surface at a flow rate of 2 μL/min. […] BSA was used as a negative control (25 μL, 50 μL/min […] in PBS) to confirm complete coverage of the nonspecific binding sites. Several sensorgrams were obtained with 30 μL of the peptide solutions injected at a flow rate of 5 μL/min, followed by PBS for 15 min to allow peptide dissociation. […]
Kinetic data were assessed through the χ^2 values, plots of the residuals from the model fitting and standard deviations. […]

[2] = Peptide aggregation, Thioflavin T (ThT) fluorescence; type: physicochemical; details: ThT 25 μM, 0.1 mM DOPG/Chol 60/40 LUVs, 100 mM NaCl, 10 mM Tris–HCl pH 7.4, 25 °C
Method: Figure 4 Panel A reports the quenching of tryptophan by acrylamide. Stern-Volmer plots of acrylamide quenching of gH625, gH625-H7, gH625-G7 in buffer (closed symbols) and in LUVs composed of DOPG/Chol 60/40 (mol/mol) (open symbols). Peptide concentration is 4 μM. Panel B reports the […] as a function of the peptide/lipid ratio of gH625, gH625-H7, gH625-G7 in buffer (closed symbols) and in 0.1 mM LUVs composed of DOPG/Chol 60/40 (mol/mol) (open symbols).
The three peptides are not aggregated in buffer as evidenced by the fact that the fluorescence remained unaltered after the addition of the peptides (see closed symbols). On the contrary, they all caused a progressive aggregation in LUVs as the fluorescence change increased dramatically.
Peptide aggregation was monitored using ThioflavinT (ThT), which combines rapidly with aggregated peptides producing a new excitation maximum at 450 nm (slit width, 5 nm) and an enhanced emission at 482 nm (slit width, 5 nm)[43]. This experiment was conducted in LUVs (final phospholipid concentration of 0.1 mM) and buffer containing 25 μM ThT in 100 mM NaCl, 10 mM Tris–HCl, pH 7.4. Fluorescence was measured before and after the addition of peptides. In particular, we tested the following peptide concentrations 0.005, 0.01, 0.015, 0.02, 0.03, 0.04, 0.05 and 0.07 mM at 25 °C. Aggregation (A) was determined according to the following equation7 %A=(Ff−F0)/(Fmax−F0)×100 where Ff is the value of fluorescence after peptide addition, F0 the initial fluorescence in the absence of peptide and Fmax is the fluorescence maximum obtained immediately after peptide addition. Kinetic data were obtained at a concentration of 4 μM.

[3] = lipid 0.1 mM, 25 °C, outer NBD reduced with 100 mM dithionite, average of three experiments
Method: The extent of lipid mixing between only the inner monolayers of vesicles in solution, labelled with NBD and Rho, was determined adding an aqueous reducing agent (dithionite) which eliminated the NBD fluorescence from the vesicle membranes’ outer monolayer.
Figure 2 Inner monolayer in DOPC/Chol 60/40 (mol/mol) (A) and DOPG/Chol 60/40 (mol/mol) (B). […] Lipid concentration is 0.1 mM. Percentage of inner monolayer fusion as a function of the peptide/lipid ratio is reported and each trace represents an average of three independent experiments.
Membrane fusion was monitored by the fluorescence resonance energy transfer assay (FRET)[70] at 25 °C. Two populations of LUVs, one labelled with 0.6 mol% of NBD (donor) and Rho (acceptor) and one unlabelled were mixed and the variation in NBD fluorescence due to membrane fusion was determined. After the addition of aliquots of peptides the change in donor emission (excitation wavelength 465 nm, emission wavelength 530 nm) was monitored. […] The 100% of fusion was determined upon the addition of Triton X-100 (0.05% v/v). All results are an average of at least three experiments. A cut off filter at 515 nm was used.
The dithionite was removed through size exclusion chromatography, Sephadex G-50 DNA Grade, (GE Healthcare, Pharmacia, Uppsala, Sweden) with buffer containing 10 mM TRIS, 100 mM NaCl, and 1 mM EDTA, pH 7.4.

Row | Compound | K2 [1] | peptide aggregation in LUVs [2] | fusion of the inner monolayer, DOPC/Chol LUVs [3] | fusion of the inner monolayer, DOPG/Chol LUVs [3]
1 | CC[C@H](C)[C@H](NC(=O)[C@H](CC(C)C)NC(=O)[C@H](C)NC(=O)[C@H](CC(N)=O)NC(=O)[C@H](Cc1ccc(O)cc1)NC(=O)[C@H](Cc1c[nH]cn1)NC(=O)[C@H](C)NC(=O)[C@H](Cc1c[nH]c2ccccc12)NC(=O)[C@H](CCCNC(=N)N)NC(=O)[C@@H](NC(=O)[C@H](CC(C)C)NC(=O)[C@@H](NC(=O)[C@H](CO)NC(=O)[C@H](C)NC(=O)[C@H](CC(C)C)NC(=O)CNC(=O)[C@@H](N)Cc1c[nH]cn1)[C@@H](C)O)[C@@H](C)O)C(=O)N[C@@H](CCCNC(=N)N)C(=O)N[C@@H](C)C(=O)N[C@@H](Cc1ccccc1)C(=O)NCC(=O)NCC(=O)NCC(=O)N[C@@H](CCCCN)C(=O)N[C@@H](CCCCN)C(=O)N[C@@H](CCCCN)C(=O)N[C@@H](CCCCN)C(N)=O [gH625-G7] (H-HGLASTLTRWAHYNALIRAFGGGKKKK-NH2) | 5.72 | oligomerize significantly | only a small fusion | 
2 | I: HGLASTLTRWAHYNALIRAFGCGKKKK-NH2 / II: HGLASTLTRWAHYNALIRAFGCGKKKK-NH2 (disulfide I:22-II:22) [gH625-H7] | 3.89 | oligomerize significantly | complete fusion | complete fusion
3 | CC[C@H](C)[C@H](NC(=O)[C@H](CC(C)C)NC(=O)[C@H](C)NC(=O)[C@H](CC(N)=O)NC(=O)[C@H](Cc1ccc(O)cc1)NC(=O)[C@H](Cc1c[nH]cn1)NC(=O)[C@H](C)NC(=O)[C@H](Cc1c[nH]c2ccccc12)NC(=O)[C@H](CCCNC(=N)N)NC(=O)[C@@H](NC(=O)[C@H](CC(C)C)NC(=O)[C@@H](NC(=O)[C@H](CO)NC(=O)[C@H](C)NC(=O)[C@H](CC(C)C)NC(=O)CNC(=O)[C@@H](N)Cc1c[nH]cn1)[C@@H](C)O)[C@@H](C)O)C(=O)N[C@@H](CCCNC(=N)N)C(=O)N[C@@H](C)C(=O)N[C@@H](Cc1ccccc1)C(N)=O [gH625] (H-HGLASTLTRWAHYNALIRAF-NH2) | 0.41 | lower aggregation at low peptide/lipid ratio | only a small fusion | 
